The source of these data is ChEMBL document CHEMBL1132783, “Dibasic inhibitors of human mast cell tryptase. Part 1: synthesis and optimization of a novel class of inhibitors” (Bioorg Med Chem Lett, 2000).

The target of one assay is Prothrombin (Homo sapiens, UniProt P00734). Description: Inhibitory potency against thrombin.
In the next assay the target is Plasminogen (Homo sapiens, UniProt P00747). Nature of the assay: Inhibitory potency against plasmin.
The next assay has as its target Tryptase beta-1 (Homo sapiens, UniProt Q15661). Nature of the assay: Inhibitory potency against tryptase.
The target of the next assay is Serine protease 1 (Homo sapiens, UniProt P07477). Nature of the assay: Inhibitory potency against trypsin.
Chain of Serine protease 1 (P07477 whole entry): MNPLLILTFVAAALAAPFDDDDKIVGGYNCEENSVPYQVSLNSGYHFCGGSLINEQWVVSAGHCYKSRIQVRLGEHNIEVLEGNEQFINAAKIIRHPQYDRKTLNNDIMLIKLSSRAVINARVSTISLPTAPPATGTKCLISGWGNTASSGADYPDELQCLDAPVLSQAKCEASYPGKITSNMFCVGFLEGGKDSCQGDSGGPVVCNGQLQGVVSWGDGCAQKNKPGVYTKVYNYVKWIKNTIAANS

Chain of Tryptase beta-1 (Q15661 whole entry): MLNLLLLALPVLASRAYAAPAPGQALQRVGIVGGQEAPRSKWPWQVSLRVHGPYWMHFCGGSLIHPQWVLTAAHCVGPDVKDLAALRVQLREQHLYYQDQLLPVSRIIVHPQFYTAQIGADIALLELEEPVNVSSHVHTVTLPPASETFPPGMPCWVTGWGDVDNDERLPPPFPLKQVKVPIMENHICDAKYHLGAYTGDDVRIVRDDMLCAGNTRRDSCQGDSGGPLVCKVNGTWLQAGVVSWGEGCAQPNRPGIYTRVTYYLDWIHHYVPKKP
Chain of Plasminogen (P00747 97-580 limits assumed): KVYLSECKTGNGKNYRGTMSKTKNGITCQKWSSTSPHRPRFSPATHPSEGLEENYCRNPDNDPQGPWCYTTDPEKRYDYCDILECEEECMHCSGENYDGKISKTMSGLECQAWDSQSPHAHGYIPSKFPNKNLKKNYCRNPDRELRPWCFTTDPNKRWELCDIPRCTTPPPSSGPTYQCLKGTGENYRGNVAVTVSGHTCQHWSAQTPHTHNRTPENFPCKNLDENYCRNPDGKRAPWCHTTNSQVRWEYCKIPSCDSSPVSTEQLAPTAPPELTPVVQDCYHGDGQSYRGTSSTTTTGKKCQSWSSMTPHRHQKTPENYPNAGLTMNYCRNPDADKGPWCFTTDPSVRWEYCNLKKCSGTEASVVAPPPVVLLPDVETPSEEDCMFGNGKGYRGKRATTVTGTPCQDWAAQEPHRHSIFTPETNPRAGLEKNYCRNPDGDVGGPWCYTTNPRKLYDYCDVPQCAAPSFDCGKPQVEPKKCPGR
Chain of Plasminogen (P00747 581-810 limits assumed): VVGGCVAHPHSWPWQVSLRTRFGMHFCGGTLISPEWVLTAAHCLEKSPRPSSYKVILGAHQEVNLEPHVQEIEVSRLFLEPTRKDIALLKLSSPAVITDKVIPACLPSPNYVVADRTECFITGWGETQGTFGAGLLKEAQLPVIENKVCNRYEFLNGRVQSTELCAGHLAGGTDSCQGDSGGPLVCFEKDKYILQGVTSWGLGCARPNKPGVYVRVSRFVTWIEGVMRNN

For `NC(N)=Nc1ccc(CNC(=O)NCC(=O)O[C@H]2CCC[C@@H](OC(=O)CNC(=O)NCc3ccc(N=C(N)N)cc3)CCC2)cc1`, the Ki is above 1000 µM on Prothrombin, above 1000 µM on Plasminogen, 0.002 µM on Tryptase beta-1 and 78 µM at Serine protease 1.

For `N=C(N)Nc1ccc(CNC(=O)N2CCN(C(=O)O[C@H]3CCC[C@@H](OC(=O)N4CCN(C(=O)NCc5ccccc5)CC4)CCC3)CC2)cc1`, the Ki is above 1000 µM at Prothrombin, above 1000 µM on Plasminogen, 15 µM on Tryptase beta-1 and 182 µM on Serine protease 1.

For the compound `O=C(NCc1ccccc1)N1CCN(C(=O)O[C@H]2CCC[C@@H](OC(=O)N3CCN(C(=O)NCc4ccccc4)CC3)CCC2)CC1`, the Ki was 14 µM on Prothrombin, above 1000 µM on Plasminogen, 101 µM on Tryptase beta-1 and 44 µM at Serine protease 1.

As for `NCc1ccc(CNC(=O)CC(=O)NCc2ccc(CNC(=O)CC(=O)NCc3ccc(CN)cc3)cc2)cc1`, the Ki at Prothrombin was above 1000 µM; at Plasminogen, above 1000 µM; at Tryptase beta-1 it was 0.15 µM; on Serine protease 1, 317 µM.

In the case of `N=C(N)Nc1ccc(CNC(=O)CCCC(=O)NCc2ccc(CNC(=O)CCCC(=O)NCc3ccc(NC(=N)N)cc3)cc2)cc1`, the Ki is 492 µM at Prothrombin, above 1000 µM on Plasminogen, 0.1 µM at Tryptase beta-1 and 70 µM on Serine protease 1.

Regarding `NCc1ccc(CNC(=O)CCCC(=O)NCc2ccc(CNC(=O)CCCC(=O)NCc3ccc(CN)cc3)cc2)cc1`, the Ki on Prothrombin is above 1000 µM; at Plasminogen it was above 1000 µM; on Tryptase beta-1, 0.009 µM; at Serine protease 1 it was 274 µM.

On to `N=C(N)Nc1ccc(CNC(=O)CC(=O)NCc2ccc(CNC(=O)CC(=O)NCc3ccc(NC(=N)N)cc3)cc2)cc1`, for which the Ki is above 1000 µM at Prothrombin, above 1000 µM on Plasminogen, 0.68 µM on Tryptase beta-1 and 73 µM at Serine protease 1.

Turning to `NCc1ccc(CNC(=O)CNC(=O)OCc2ccc(COC(=O)NCC(=O)NCc3ccc(CN)cc3)cc2)cc1`, the Ki at Prothrombin was above 1000 µM; on Plasminogen, above 1000 µM; at Tryptase beta-1, 0.0006 µM.

Consider `CN(Cc1ccc(CN(C)C(=O)CCC(=O)NCc2ccc(CN)cc2)cc1)C(=O)CCC(=O)NCc1ccc(CN)cc1`, for which the Ki was above 1000 µM on Prothrombin, 214 µM on Plasminogen, 0.005 µM on Tryptase beta-1 and 162 µM on Serine protease 1.

Regarding `C[C@H](NC(=O)OCc1ccc(COC(=O)N[C@@H](C)C(=O)NCc2ccc(CN)cc2)cc1)C(=O)NCc1ccc(CN)cc1`, the Ki on Prothrombin was above 1000 µM; on Plasminogen, 83 µM; on Tryptase beta-1, 0.366 µM; on Serine protease 1 it was 273 µM.

Consider `C[C@@H](NC(=O)OCc1ccc(COC(=O)N[C@H](C)C(=O)NCc2ccc(CN)cc2)cc1)C(=O)NCc1ccc(CN)cc1`, for which the Ki on Prothrombin was above 1000 µM; on Plasminogen, above 1000 µM; on Tryptase beta-1, 0.031 µM; at Serine protease 1, 38 µM.

Take `N=C(N)Nc1ccc(CNC(=O)CCNC(=O)OCc2ccc(COC(=O)NCCC(=O)NCc3ccc(NC(=N)N)cc3)cc2)cc1`: the Ki was above 1000 µM at Prothrombin, above 1000 µM on Plasminogen, 0.09 µM on Tryptase beta-1 and 72 µM at Serine protease 1.

For `CN(Cc1ccc(CN)cc1)C(=O)CCC(=O)NCc1ccc(CNC(=O)CCC(=O)N(C)Cc2ccc(CN)cc2)cc1`, the Ki at Prothrombin is above 1000 µM; on Plasminogen, above 1000 µM; at Tryptase beta-1 it was 2 µM; at Serine protease 1, above 1000 µM.

`NCc1ccc(CNC(=O)CCC(=O)NCc2ccc(CNC(=O)CCC(=O)NCc3ccc(CN)cc3)cc2)cc1`: the Ki at Prothrombin is above 1000 µM; at Plasminogen, 769 µM; on Tryptase beta-1, 0.003 µM; on Serine protease 1 it was 237 µM.

For `N=C(N)Nc1ccc(CNC(=O)CCC(=O)NCc2ccc(CNC(=O)CCC(=O)NCc3ccc(NC(=N)N)cc3)cc2)cc1`, the Ki on Prothrombin was above 1000 µM; on Plasminogen, above 1000 µM; on Tryptase beta-1, 0.04 µM; on Serine protease 1, 146 µM.

On to `N=C(N)Nc1ccc(CNC(=O)N2CCN(C(=O)O[C@H]3CCC[C@@H](OC(=O)N4CCN(C(=O)NCc5ccc(NC(=N)N)cc5)CC4)CCC3)CC2)cc1`, for which the inhibitory constant (Ki) at Prothrombin is 435 µM; on Plasminogen, 494 µM; on Serine protease 1 it was 39 µM.

For the compound `CN(CC(=O)NCc1ccc(CN)cc1)C(=O)OCc1ccc(COC(=O)N(C)CC(=O)NCc2ccc(CN)cc2)cc1`, the Ki at Prothrombin was above 1000 µM; on Plasminogen it was above 230 µM; at Tryptase beta-1 it was 0.005 µM; at Serine protease 1, 50 µM.

Take `NC(N)=Nc1ccc(CNC(=O)CNC(=O)OCc2ccc(COC(=O)NCC(=O)NCc3ccc(N=C(N)N)cc3)cc2)cc1`: the Ki on Prothrombin is above 1000 µM; on Plasminogen, above 1000 µM; on Tryptase beta-1, 0.01 µM; on Serine protease 1, 56 µM.
